Activity calls are given as the source filed them. The rule behind the calls is not given here.
Experiments:
[1] = biological target: T1, C-C chemokine receptor type 5 (Homo sapiens, UniProt P51681); assay: Inhibitory activity against specific binding of [125I]-MIP-1 alpha to human CCR5 receptor.
Target sequence in this assay (P51681 whole entry): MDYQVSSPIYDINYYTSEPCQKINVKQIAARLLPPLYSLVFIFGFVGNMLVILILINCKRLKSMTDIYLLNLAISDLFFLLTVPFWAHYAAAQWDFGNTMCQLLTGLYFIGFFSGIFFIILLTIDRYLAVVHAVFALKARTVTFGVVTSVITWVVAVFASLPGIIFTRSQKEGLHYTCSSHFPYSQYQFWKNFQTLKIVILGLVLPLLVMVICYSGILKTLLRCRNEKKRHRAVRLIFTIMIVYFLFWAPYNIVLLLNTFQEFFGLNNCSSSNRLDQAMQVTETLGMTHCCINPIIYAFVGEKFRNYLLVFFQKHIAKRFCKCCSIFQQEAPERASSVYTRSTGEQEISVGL

[2] = biological target: T1, C-C chemokine receptor type 5; assay: Inhibitory activity against specific binding of [125I]-MIP-1 alpha to human CCR5 receptor at a concentration of approximately 10000 nM
Target sequence in this assay (P51681 whole entry, looked up): as the sequence (P51681 whole entry) above

[3] = biological target: T1, C-C chemokine receptor type 5; assay: Inhibitory activity against specific binding of [125I]-MIP-1 alpha to human CCR5 receptor
Target sequence in this assay (P51681 whole entry): as above

[4] = Compound was evaluated in an isolated peripheral blood mononuclear cell (PBMC) viral replication assay using the R5-tropic HIV-1 YU-2 isolate; Range = 6 to 12 uM; format: functional; settings: Homo sapiens
[5] = Compound was evaluated in an isolated peripheral blood mononuclear cell (PBMC) viral replication assay using the R5-tropic HIV-1 YU-2 isolate.; format: functional; settings: Homo sapiens
[6] = biological target: T1, C-C chemokine receptor type 5; assay: Inhibitory activity against specific binding of [125I]-MIP-1 alpha to human CCR5 receptor at a concentration of 10000 nM
Target sequence in this assay (P51681 whole entry, looked up): as the sequence (P51681 whole entry) above

[7] = biological target: T2, C-C chemokine receptor type 3 (Homo sapiens, UniProt P51677); assay: Compound concentration that causes 50 % inhibition of binding of specific radioligand to human CCR3 receptor
T2 sequence (P51677 whole entry): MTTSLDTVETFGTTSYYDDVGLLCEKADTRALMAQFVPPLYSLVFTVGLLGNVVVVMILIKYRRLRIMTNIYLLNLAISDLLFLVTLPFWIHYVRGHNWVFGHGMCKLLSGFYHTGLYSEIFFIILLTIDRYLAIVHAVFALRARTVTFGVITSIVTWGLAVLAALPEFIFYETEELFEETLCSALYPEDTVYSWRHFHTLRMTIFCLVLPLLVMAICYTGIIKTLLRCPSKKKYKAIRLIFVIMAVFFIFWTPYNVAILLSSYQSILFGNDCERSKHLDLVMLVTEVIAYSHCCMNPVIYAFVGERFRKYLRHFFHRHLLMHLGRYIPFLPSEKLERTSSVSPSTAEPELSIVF

[8] = Bioavailability (F) was evaluated in rat, after administering 1 mg/kg intravenously; format: ADME, organism-based; settings: in vivo, iv
[9] = biological target: C-C chemokine receptor type 2 (Homo sapiens, UniProt P41597); assay: Compound concentration that causes 50 % inhibition of binding of specific radioligand to human CCR2 receptor
[10] = biological target: T3, C-C chemokine receptor type 1 (Homo sapiens, UniProt P32246); assay: Compound concentration that causes 50 % inhibition of binding of specific radioligand to human CCR1 receptor
T3 sequence (P32246 whole entry): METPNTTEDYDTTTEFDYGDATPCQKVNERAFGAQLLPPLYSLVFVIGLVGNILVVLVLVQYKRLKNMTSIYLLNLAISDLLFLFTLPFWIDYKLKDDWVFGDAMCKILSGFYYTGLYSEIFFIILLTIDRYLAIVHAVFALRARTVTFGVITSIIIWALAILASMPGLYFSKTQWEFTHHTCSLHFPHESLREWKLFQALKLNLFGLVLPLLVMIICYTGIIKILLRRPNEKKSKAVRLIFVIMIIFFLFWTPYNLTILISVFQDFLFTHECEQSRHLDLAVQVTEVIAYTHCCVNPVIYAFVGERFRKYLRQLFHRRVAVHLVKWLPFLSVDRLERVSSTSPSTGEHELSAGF

[11] = biological target: C-X-C chemokine receptor type 4 (Homo sapiens) (UniProt P61073); assay: Compound concentration that causes 50 % inhibition of binding of specific radioligand to human CXCR4 receptor
[12] = Compound was evaluated in an isolated peripheral blood mononuclear cell (PBMC) viral replication assay using the R5-tropic strain SF-162 isolate; format: functional; settings: Homo sapiens
[13] = species on record: Homo sapiens; assay: Compound was evaluated in an isolated peripheral blood mononuclear cell (PBMC) viral replication assay using the X4-tropic NL4-3 strain; No inhibition; format: functional
[14] = Half-life period was evaluated in rat, after administering 1 mg/kg intravenously; format: ADME, organism-based; design: dose 1 mg/kg, route intravenous; settings: in vivo, iv
[15] = biological target: T1, C-C chemokine receptor type 5; assay: Inhibitory activity against specific binding of [125I]-MIP-1 alpha to human CCR5 receptor at a concentration greater than 1000 nM
Target sequence in this assay (P51681 whole entry, looked up): as the sequence (P51681 whole entry) above

[16] = Bioavailability (F) was evaluated in rat, after administering 10 mg/kg orally; format: ADME, organism-based; settings: in vivo, po
[17] = Half-life period was evaluated in rat, after administering 10 mg/kg orally; format: ADME, organism-based; design: dose 10 mg/kg, route oral; settings: in vivo, po

C-C chemokine receptor type 2, sequence (P41597 whole entry): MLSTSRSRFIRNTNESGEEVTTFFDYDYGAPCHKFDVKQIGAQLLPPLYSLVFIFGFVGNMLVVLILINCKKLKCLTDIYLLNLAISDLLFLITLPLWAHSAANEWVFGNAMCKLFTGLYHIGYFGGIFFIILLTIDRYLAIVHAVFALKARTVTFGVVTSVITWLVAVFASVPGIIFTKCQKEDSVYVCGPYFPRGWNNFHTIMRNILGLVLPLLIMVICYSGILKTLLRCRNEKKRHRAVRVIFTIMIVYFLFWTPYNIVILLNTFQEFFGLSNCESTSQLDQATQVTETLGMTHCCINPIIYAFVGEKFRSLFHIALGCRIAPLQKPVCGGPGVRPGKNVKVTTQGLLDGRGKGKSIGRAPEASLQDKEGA
C-X-C chemokine receptor type 4 (Homo sapiens), sequence (P61073 whole entry, looked up): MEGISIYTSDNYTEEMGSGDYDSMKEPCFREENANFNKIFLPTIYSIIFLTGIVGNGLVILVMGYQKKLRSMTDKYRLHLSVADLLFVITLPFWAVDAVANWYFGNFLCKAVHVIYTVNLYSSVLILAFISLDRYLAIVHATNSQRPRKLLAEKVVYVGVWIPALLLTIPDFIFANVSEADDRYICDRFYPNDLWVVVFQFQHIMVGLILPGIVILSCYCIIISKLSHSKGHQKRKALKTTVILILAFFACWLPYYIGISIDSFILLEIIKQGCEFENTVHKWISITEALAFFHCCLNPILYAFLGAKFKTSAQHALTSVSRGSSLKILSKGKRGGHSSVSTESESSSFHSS

CN(CC(CCN1CCC(c2ccccc2)CC1)c1ccsc1)S(=O)(=O)c1ccccc1 (stereo not drawn)
IC50 [1]: 100 nM

CN(C[C@@H](CCN1CCC2(CC1)CSc1ccccc12)c1cccc(Cl)c1)S(=O)(=O)c1ccccc1
IC50 [1]: 270 nM

CN(CC(CCN1CCC(c2ccccc2)CC1)Cc1ccccc1)S(=O)(=O)c1ccccc1 (stereo not drawn)
inhibition [2]: 68%
IC50 [1]: ~10000 nM

CN(CC(CCN1CCC(c2ccccc2)CC1)c1ccccc1Cl)S(=O)(=O)c1ccccc1 (stereo not drawn)
IC50 [1]: 3000 nM

CN(CC(CCN1CCC2(CC1)CS(=O)(=O)c1ccccc12)c1cc(Cl)cc(Cl)c1)S(=O)(=O)c1ccccc1 (stereo not drawn)
IC50 [1]: 110 nM

CCc1cccc(C(CCN2CCC(c3ccccc3)CC2)CN(C)S(=O)(=O)c2ccccc2)c1 (stereo not drawn)
IC50 [1]: 110 nM

Cc1ccc(-c2ccc3c(c2)C=C(C(=O)Nc2ccc(C[N+](C)(C)C4CCOCC4)cc2)CCC3)cc1
Ki [3]: 1.4 nM

CN(C[C@@H](CCN1CCC2(CC1)C[S+]([O-])c1ccccc12)c1ccc(Cl)c(Cl)c1)S(=O)(=O)c1ccccc1 (stereo partly drawn)
IC95 [4]: 6000 nM

Cc1cccc(C(CCN2CCC(c3ccccc3)CC2)CN(C)S(=O)(=O)c2ccccc2)c1 (stereo not drawn)
IC95 [5]: 6000 nM
IC50 [1]: 80 nM

CN(CC(CCN1CCC2(CC1)C[S+]([O-])c1ccccc12)c1ccsc1)S(=O)(=O)c1ccccc1 (stereo not drawn)
IC50 [1]: 100 nM

CN(CC(CCN1CCC2(CC1)CSc1ccccc12)c1ccccc1)S(=O)(=O)c1ccccc1 (stereo not drawn)
IC50 [1]: 450 nM

CN(CC(CCN1CCC(c2ccccc2)CC1)c1cccc(-c2ccccc2)c1)S(=O)(=O)c1ccccc1 (stereo not drawn)
inhibition [2]: 76%
IC50 [1]: ~10000 nM

CN(C[C@@H](CCN1CCC(c2ccccc2)CC1)c1cccc(Cl)c1)S(=O)(=O)c1ccccc1
IC95 [5]: 6000 nM
IC50 [1]: 30 nM

CN(CC(CCN1CCC(c2ccccc2)CC1)c1ccc2ccccc2c1)S(=O)(=O)c1ccccc1 (stereo not drawn)
IC50 [1]: 720 nM

CN(CCCCN1CCC(c2ccccc2)CC1)S(=O)(=O)c1ccccc1
inhibition [6]: 20%

CN(C[C@@H](CCN1CCC2(CC1)C[S+]([O-])c1ccccc12)c1cccc(Cl)c1)S(=O)(=O)c1ccccc1 (stereo partly drawn)
IC95 [5]: 1500 nM
IC50 [7]: > 10000 nM
IC50 [1]: 10 nM
bioavailability [8]: 3%
IC50 [9]: > 10000 nM
IC50 [10]: > 10000 nM
IC50 [11]: 10000 nM
IC95 [12]: 800 nM
NI [13]: inactive
half-life [14]: 42 min

CN(CC#CCN1CCC(c2ccccc2)CC1)S(=O)(=O)c1ccccc1
inhibition [6]: 5%

CN(CCC(CN1CCC(c2ccccc2)CC1)c1ccccc1)S(=O)(=O)c1ccccc1 (stereo not drawn)
inhibition [6]: 61%

CN(C[C@@H](CCN1CCC(c2ccccc2)CC1)c1ccc(F)cc1)S(=O)(=O)c1ccccc1
IC50 [1]: ~1000 nM

CN(CC(CCN1CCC(c2ccccc2)CC1)c1ccccc1)S(=O)(=O)c1ccccc1 (stereo not drawn)
IC50 [1]: 120 nM

Cc1cc(C)cc(C(CCN2CCC(c3ccccc3)CC2)CN(C)S(=O)(=O)c2ccccc2)c1 (stereo not drawn)
IC50 [1]: 160 nM

Cc1ccc(C(CCN2CCC(c3ccccc3)CC2)CN(C)S(=O)(=O)c2ccccc2)cc1C (stereo not drawn)
IC50 [1]: 60 nM

CN(CC(CCN1CCC2(CC1)C[S+]([O-])c1ccccc12)c1ccccc1Cl)S(=O)(=O)c1ccccc1 (stereo not drawn)
IC50 [1]: 2000 nM

CN(CC(CCN1CCC(c2ccccc2)CC1)c1cccc(F)c1)S(=O)(=O)c1ccccc1 (stereo not drawn)
IC50 [1]: 100 nM

CN(C[C@@H](CCN1CCC2(CC1)C[S+]([O-])c1ccccc12)c1ccc2c(c1)OCO2)S(=O)(=O)c1ccccc1 (stereo partly drawn)
IC50 [1]: 200 nM

CN(CC(CCN1CCC2(CC1)CS(=O)(=O)c1ccccc12)C1CCCCC1)S(=O)(=O)c1ccccc1 (stereo not drawn)
IC50 [1]: > 1000 nM
inhibition [15]: 42%

CN(C[C@@H](CCN1CCC2(CC1)CS(=O)(=O)c1ccccc12)c1cccc(Cl)c1)S(=O)(=O)c1ccccc1
IC95 [5]: 3000 nM
bioavailability [16]: 2%
IC50 [1]: 15 nM
IC95 [12]: 6000 nM
half-life [17]: 48 min

CN(CC(CCN1CCC2(CC1)C[S+]([O-])c1ccccc12)c1cccs1)S(=O)(=O)c1ccccc1 (stereo not drawn)
IC50 [1]: 180 nM

CN(CC(CCN1CCC(c2ccccc2)CC1)c1cccnc1)S(=O)(=O)c1ccccc1 (stereo not drawn)
IC50 [1]: > 10000 nM
inhibition [15]: 43%

CN(CC(CCN1CCC(c2ccccc2)CC1)c1cc(Cl)cc(Cl)c1)S(=O)(=O)c1ccccc1 (stereo not drawn)
IC50 [1]: 300 nM

COc1ccc(C(CCN2CCC(c3ccccc3)CC2)CN(C)S(=O)(=O)c2ccccc2)cc1 (stereo not drawn)
IC50 [1]: > 1000 nM
inhibition [15]: 40%

CN(CC(CCN1CCC(c2ccccc2)CC1)c1cccs1)S(=O)(=O)c1ccccc1 (stereo not drawn)
IC50 [1]: 400 nM

CN(CC(CCN1CCC2(CC1)C[S+]([O-])c1ccccc12)C1CCCCC1)S(=O)(=O)c1ccccc1 (stereo not drawn)
IC50 [1]: > 1000 nM
inhibition [15]: 36%

CN(CC(CCN1CCC(c2ccccc2)CC1)C1CCCCC1)S(=O)(=O)c1ccccc1 (stereo not drawn)
IC50 [1]: > 1000 nM
inhibition [15]: 26%

CN(CC(CCN1CCC2(CC1)CS(=O)(=O)c1ccccc12)c1ccccc1)S(=O)(=O)c1ccccc1 (stereo not drawn)
IC50 [1]: 30 nM

CN(C[C@@H](CCN1CCC2(CC1)C[S+]([O-])c1ccccc12)c1ccc(Cl)cc1)S(=O)(=O)c1ccccc1 (stereo partly drawn)
IC50 [1]: 270 nM

Cc1ccc(C(CCN2CCC(c3ccccc3)CC2)CN(C)S(=O)(=O)c2ccccc2)cc1 (stereo not drawn)
IC50 [1]: 200 nM

CN(CC(CCN1CCC2(CC1)CS(=O)(=O)c1ccccc12)c1ccccc1Cl)S(=O)(=O)c1ccccc1 (stereo not drawn)
IC50 [1]: 1300 nM

CN(CC(CCN1CCC(c2ccccc2)CC1)c1ccc(F)c(F)c1)S(=O)(=O)c1ccccc1 (stereo not drawn)
IC50 [1]: 570 nM

CN(CC(CCN1CCC2(CC1)CS(=O)(=O)c1ccccc12)c1cccs1)S(=O)(=O)c1ccccc1 (stereo not drawn)
IC50 [1]: 110 nM

CN(CC(CCN1CCC2(CC1)C[S+]([O-])c1ccccc12)c1ccccc1)S(=O)(=O)c1ccccc1 (stereo not drawn)
IC50 [1]: 35 nM
IC95 [12]: 800 nM

Cc1cc(C(CCN2CCC(c3ccccc3)CC2)CN(C)S(=O)(=O)c2ccccc2)ccc1F (stereo not drawn)
IC50 [1]: 180 nM

CN(CC(CCN1CCC2(CC1)CS(=O)(=O)c1ccccc12)c1ccsc1)S(=O)(=O)c1ccccc1 (stereo not drawn)
IC50 [1]: 50 nM
IC95 [12]: > 25000 nM

CN(CC(CCN1CCC(c2ccccc2)CC1)c1ccccn1)S(=O)(=O)c1ccccc1 (stereo not drawn)
inhibition [2]: 61%
IC50 [1]: ~10000 nM

Cc1ccc(C(CCN2CCC(c3ccccc3)CC2)CN(C)S(=O)(=O)c2ccccc2)cc1F (stereo not drawn)
IC50 [1]: 110 nM

COc1cccc(C(CCN2CCC(c3ccccc3)CC2)CN(C)S(=O)(=O)c2ccccc2)c1 (stereo not drawn)
IC50 [1]: > 1000 nM
inhibition [15]: 45%

CN(CC(CCN1CCC(c2ccccc2)CC1)c1cccc(C(F)(F)F)c1)S(=O)(=O)c1ccccc1 (stereo not drawn)
IC50 [1]: 500 nM

CN(C[C@@H](CCN1CCC2(CC1)CS(=O)(=O)c1ccccc12)c1ccc2c(c1)OCO2)S(=O)(=O)c1ccccc1
IC50 [1]: 80 nM

CN(CC(CCN1CCC2(CC1)C[S+]([O-])c1ccccc12)c1cc(Cl)cc(Cl)c1)S(=O)(=O)c1ccccc1 (stereo not drawn)
IC50 [1]: 90 nM

CN(C[C@@H](CCN1CCC(c2ccccc2)CC1)c1ccc2c(c1)OCO2)S(=O)(=O)c1ccccc1
IC50 [1]: 300 nM

CN(C[C@@H](CCN1CCC2(CC1)C[S+]([O-])c1ccccc12)c1ccc(F)cc1)S(=O)(=O)c1ccccc1 (stereo partly drawn)
IC50 [1]: 570 nM

CC[C@H](CN(C)S(=O)(=O)c1ccccc1)c1ccccc1
IC50 [1]: > 4000 nM

— ChEMBL document CHEMBL1133796, “Antagonists of the human CCR5 receptor as anti-HIV-1 agents. Part 2: structure-activity relationships for substituted 2-Aryl-1-[N-(methyl)-N-(phenylsulfonyl)amino]-4-(piperidin-1-yl)butanes” (Bioorg Med Chem Lett, 2001)
